# US9302988B2, “Fluoromethyl-substituted pyrrole carboxamides” (GRÜNENTHAL GMBH, priority 2012, dated 2016)
# Target: T1, Human CaV2.2 channels (Homo sapiens, UniProt Q00975)
# T1 construct: expressed in transfected cells
# Experiment: Fluorescent assay for CaV2.2 channels using potassium depolarization to induce channel opening (FLIPR, Fluo-4)
# Type: cell-based
# Details: 3 μM test compound, 30 mM KCl, HEK293 cells stably expressing human CaV2.2; read-out: %-Inhib (CaV2.2) @3 μM @30 mM KCl
# How it was run: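 HEK293 cells stably co-expressing CaV2.2 with α2δ and β subunits plus Kir2.3 were Fluo-4 loaded, then preincubated 15 min at 25 °C with compound in 30 mM KCl buffer, pH 7.4. Depolarization was by adding buffer containing 210 mM KCl. Inhibition was taken from baseline-normalized peak fluorescence amplitude (ex 480/em 535 nm).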
# T1 sequence (Q00975 whole entry): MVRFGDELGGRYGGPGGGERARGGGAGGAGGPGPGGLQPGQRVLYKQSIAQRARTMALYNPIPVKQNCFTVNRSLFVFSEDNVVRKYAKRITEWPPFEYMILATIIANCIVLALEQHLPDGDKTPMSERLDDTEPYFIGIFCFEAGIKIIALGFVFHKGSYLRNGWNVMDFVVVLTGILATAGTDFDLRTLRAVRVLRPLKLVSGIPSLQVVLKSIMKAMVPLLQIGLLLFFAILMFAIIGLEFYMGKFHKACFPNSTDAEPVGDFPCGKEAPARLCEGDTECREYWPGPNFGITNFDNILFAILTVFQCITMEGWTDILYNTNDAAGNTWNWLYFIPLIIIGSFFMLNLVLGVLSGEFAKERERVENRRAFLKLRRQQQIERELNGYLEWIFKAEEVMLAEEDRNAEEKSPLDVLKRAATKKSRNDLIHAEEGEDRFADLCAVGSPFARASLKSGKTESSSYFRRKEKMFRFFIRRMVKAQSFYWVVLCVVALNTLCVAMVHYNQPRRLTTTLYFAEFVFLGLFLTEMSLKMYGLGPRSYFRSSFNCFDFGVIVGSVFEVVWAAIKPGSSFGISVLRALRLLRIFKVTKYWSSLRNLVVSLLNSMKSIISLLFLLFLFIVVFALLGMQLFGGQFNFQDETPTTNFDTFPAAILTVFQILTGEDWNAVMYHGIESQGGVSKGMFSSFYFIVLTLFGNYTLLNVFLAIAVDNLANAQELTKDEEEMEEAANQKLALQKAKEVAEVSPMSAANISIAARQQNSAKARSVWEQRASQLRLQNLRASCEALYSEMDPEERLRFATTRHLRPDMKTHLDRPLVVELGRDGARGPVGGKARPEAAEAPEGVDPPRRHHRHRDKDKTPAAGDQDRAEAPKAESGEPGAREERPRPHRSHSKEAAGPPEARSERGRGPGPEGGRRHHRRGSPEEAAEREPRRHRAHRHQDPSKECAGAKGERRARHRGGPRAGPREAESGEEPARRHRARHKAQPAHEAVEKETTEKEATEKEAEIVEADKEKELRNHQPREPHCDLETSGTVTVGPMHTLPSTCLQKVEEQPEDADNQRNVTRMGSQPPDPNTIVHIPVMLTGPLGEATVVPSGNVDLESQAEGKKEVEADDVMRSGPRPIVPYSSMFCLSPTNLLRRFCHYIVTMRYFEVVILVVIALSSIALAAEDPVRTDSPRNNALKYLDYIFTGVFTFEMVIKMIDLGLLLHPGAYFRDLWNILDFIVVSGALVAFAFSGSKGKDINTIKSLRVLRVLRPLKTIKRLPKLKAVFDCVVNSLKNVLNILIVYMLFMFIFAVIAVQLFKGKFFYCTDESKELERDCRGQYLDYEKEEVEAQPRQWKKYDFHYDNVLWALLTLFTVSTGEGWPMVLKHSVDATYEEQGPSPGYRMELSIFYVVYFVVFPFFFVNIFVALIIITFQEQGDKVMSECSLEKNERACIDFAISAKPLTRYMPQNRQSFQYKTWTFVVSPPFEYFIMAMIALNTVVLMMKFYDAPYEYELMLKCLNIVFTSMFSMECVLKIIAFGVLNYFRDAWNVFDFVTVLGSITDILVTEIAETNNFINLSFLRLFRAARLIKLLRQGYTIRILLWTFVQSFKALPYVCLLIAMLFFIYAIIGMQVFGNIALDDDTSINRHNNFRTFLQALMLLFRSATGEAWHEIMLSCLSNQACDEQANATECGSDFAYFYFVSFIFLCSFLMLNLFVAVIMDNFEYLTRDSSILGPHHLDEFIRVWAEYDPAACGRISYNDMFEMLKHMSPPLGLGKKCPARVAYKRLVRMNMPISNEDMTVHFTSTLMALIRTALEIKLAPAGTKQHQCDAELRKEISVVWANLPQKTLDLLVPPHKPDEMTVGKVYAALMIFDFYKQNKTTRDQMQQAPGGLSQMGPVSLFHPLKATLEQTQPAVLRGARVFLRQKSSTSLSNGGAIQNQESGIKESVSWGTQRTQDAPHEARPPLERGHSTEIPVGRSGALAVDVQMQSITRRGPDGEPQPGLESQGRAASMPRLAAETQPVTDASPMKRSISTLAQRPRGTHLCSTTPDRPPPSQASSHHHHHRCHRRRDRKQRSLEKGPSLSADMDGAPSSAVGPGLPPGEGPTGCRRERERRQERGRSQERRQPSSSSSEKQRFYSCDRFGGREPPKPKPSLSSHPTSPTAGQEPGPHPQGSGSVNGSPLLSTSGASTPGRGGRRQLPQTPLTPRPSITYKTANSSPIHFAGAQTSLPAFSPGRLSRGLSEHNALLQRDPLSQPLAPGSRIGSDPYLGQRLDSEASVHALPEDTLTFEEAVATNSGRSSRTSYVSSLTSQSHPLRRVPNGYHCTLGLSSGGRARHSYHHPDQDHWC
# T1 sequence (P54289 25-1103, further chain): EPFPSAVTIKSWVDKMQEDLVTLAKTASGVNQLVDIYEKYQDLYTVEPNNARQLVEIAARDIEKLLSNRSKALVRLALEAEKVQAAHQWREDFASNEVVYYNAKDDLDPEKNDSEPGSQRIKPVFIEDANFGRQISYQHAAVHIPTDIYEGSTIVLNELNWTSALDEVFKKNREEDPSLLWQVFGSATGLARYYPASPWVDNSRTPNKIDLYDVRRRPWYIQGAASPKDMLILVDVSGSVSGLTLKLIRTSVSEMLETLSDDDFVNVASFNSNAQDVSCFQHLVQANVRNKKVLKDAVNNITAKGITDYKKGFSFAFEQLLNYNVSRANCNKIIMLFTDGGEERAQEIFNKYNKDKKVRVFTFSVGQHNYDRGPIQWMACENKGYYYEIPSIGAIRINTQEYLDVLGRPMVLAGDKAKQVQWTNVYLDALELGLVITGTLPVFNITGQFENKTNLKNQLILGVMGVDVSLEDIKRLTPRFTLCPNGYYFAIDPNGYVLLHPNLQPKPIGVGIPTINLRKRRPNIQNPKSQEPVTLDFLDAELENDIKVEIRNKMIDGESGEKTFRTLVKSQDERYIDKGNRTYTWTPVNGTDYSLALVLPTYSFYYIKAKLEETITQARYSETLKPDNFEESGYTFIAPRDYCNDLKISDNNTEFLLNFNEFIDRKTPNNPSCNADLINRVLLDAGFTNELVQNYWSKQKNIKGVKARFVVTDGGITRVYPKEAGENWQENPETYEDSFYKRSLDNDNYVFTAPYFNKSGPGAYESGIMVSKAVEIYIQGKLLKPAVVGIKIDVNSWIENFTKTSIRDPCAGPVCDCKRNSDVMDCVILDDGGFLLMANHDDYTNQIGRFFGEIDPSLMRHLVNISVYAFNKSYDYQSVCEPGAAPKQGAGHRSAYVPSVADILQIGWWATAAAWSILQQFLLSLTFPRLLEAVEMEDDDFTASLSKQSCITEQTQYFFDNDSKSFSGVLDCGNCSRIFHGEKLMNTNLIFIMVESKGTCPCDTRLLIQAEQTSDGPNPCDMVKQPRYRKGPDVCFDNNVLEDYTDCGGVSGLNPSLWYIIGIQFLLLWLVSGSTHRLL
# T1 sequence (P54284 whole entry, further chain): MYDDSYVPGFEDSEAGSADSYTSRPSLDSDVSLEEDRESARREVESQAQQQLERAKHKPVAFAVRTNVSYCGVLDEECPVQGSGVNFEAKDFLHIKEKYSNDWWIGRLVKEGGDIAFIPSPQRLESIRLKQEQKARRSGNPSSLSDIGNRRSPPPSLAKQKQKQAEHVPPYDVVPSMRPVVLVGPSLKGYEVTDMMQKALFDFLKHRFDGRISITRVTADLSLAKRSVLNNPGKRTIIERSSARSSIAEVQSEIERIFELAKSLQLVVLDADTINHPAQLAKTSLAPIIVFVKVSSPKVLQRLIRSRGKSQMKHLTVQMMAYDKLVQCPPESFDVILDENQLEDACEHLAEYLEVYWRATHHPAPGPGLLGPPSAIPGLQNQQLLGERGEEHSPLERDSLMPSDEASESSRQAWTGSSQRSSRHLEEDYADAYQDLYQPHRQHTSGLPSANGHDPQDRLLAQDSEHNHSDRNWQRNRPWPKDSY
row,SMILES,inhibition at 3 µM [%]
1,"CN(CC(C)(C)C(N)=O)C(=O)c1c(-c2ccc(Cl)cc2)cc(C(F)(F)F)n1Cc1ccccc1 [SC-174, 1-Benzyl-N-(2-carbamoyl-2-methyl-propyl)-3-(4-chlorophenyl)-N-methyl-5-(trifluoromethyl)-1H-pyrrole-2-carboxylic acid amide]",> 95
2,"CN(CCC(C)(C)O)C(=O)c1c(-c2ccc(Cl)cc2)cc(C(F)(F)F)n1Cc1ccccc1 [SC-176, 1-Benzyl-3-(4-chlorophenyl)-N-(3-hydroxy-3-methyl-butyl)-N-methyl-5-(trifluoromethyl)-1H-pyrrole-2-carboxylic acid amide]",> 95
3,"CC(C)(CO)CNC(=O)c1c(-c2ccc(Cl)cc2)cc(C(F)(F)F)n1Cc1ccccc1 [SC-177, 1-Benzyl-3-(4-chlorophenyl)-N-(3-hydroxy-2,2-dimethyl-propyl)-5-(trifluoromethyl)-1H-pyrrole-2-carboxylic acid amide]",> 95
4,"CN(CC1(CO)CC1)C(=O)c1c(-c2ccc(Cl)cc2)cc(C(F)(F)F)n1Cc1ccccc1 [SC-178, 1-Benzyl-3-(4-chlorophenyl)-N-[[1-(hydroxymethyl)-cyclopropyl]-methyl]-N-methyl-5-(trifluoromethyl)-1H-pyrrole-2-carboxylic acid amide]",> 95
5,"CN(CC1(CO)CCC1)C(=O)c1c(-c2ccc(Cl)cc2)cc(C(F)(F)F)n1Cc1ccccc1 [SC-179, 1-Benzyl-3-(4-chlorophenyl)-N-[[1-(hydroxymethyl)-cyclobutyl]-methyl]-N-methyl-5-(trifluoromethyl)-1H-pyrrole-2-carboxylic acid amide]",> 95
6,"CN(CC(C)(C)CN1CCOCC1)C(=O)c1c(-c2ccc(Cl)cc2)cc(C(F)(F)F)n1Cc1ccccc1 [SC-180, 1-Benzyl-3-(4-chlorophenyl)-N-(2,2-dimethyl-3-morpholin-4-yl-propyl)-N-methyl-5-(trifluoromethyl)-1H-pyrrole-2-carboxylic acid amide]",75 to 95
7,"O=C(c1c(-c2ccc(Cl)cc2)cc(C(F)(F)F)n1Cc1ccccc1)N1CCC(CO)C1 (stereo not drawn) [SC-181, [1-Benzyl-3-(4-chlorophenyl)-5-(trifluoromethyl)-1H-pyrrol-2-yl]-[3-(hydroxymethyl)-pyrrolidin-1-yl]-methanone]",75 to 95
8,"CN(CC1CCOC1)C(=O)c1c(-c2ccc(Cl)cc2)cc(C(F)(F)F)n1Cc1ccccc1 (stereo not drawn) [SC-182, 1-Benzyl-3-(4-chlorophenyl)-N-methyl-N-(tetrahydro-furan-3-yl-methyl)-5-(trifluoromethyl)-1H-pyrrole-2-carboxylic acid amide]",> 95
9,"CN(CC(C)(CO)CO)C(=O)c1c(-c2ccc(Cl)cc2)cc(C(F)(F)F)n1Cc1ccccc1 [SC-183, 1-Benzyl-3-(4-chlorophenyl)-N-[3-hydroxy-2-(hydroxymethyl)-2-methyl-propyl]-N-methyl-5-(trifluoromethyl)-1H-pyrrole-2-carboxylic acid amide]",> 95
10,"CN(C(=O)c1c(-c2ccc(Cl)cc2)cc(C(F)(F)F)n1Cc1ccccc1)C(C)(C)CCO [SC-184, 1-Benzyl-3-(4-chlorophenyl)-N-(3-hydroxy-1,1-dimethyl-propyl)-N-methyl-5-(trifluoromethyl)-1H-pyrrole-2-carboxylic acid amide]",75 to 95
11,"CS(=O)(=O)C1CCN(C(=O)c2c(-c3ccc(Cl)cc3)cc(C(F)(F)F)n2Cc2ccccc2)C1 (stereo not drawn) [SC-185, [1-Benzyl-3-(4-chlorophenyl)-5-(trifluoromethyl)-1H-pyrrol-2-yl]-(3-methylsulfonyl-pyrrolidin-1-yl)-methanone]",> 95
12,"CN(C(=O)c1c(-c2ccc(Cl)cc2)cc(C(F)(F)F)n1Cc1ccccc1)C(CO)C(C)(C)C (stereo not drawn) [SC-186, 1-Benzyl-3-(4-chlorophenyl)-N-[1-(hydroxymethyl)-2,2-dimethyl-propyl]-N-methyl-5-(trifluoromethyl)-1H-pyrrole-2-carboxylic acid amide]",> 95
13,"CN(CC(C)(C)C#N)C(=O)c1c(-c2ccc(Cl)cc2)cc(C(F)(F)F)n1Cc1ccccc1 [SC-187, 1-Benzyl-3-(4-chlorophenyl)-N-(2-cyano-2-methyl-propyl)-N-methyl-5-(trifluoromethyl)-1H-pyrrole-2-carboxylic acid amide]",> 95
14,"CN(CC(C)(C)CN)C(=O)c1c(-c2ccc(Cl)cc2)cc(C(F)(F)F)n1Cc1ccccc1 [SC-188, N-(3-Amino-2,2-dimethyl-propyl)-1-benzyl-3-(4-chlorophenyl)-N-methyl-5-(trifluoromethyl)-1H-pyrrole-2-carboxylic acid amide]",75 to 95
15,"CN(CCCS(C)(=O)=O)C(=O)c1c(-c2ccc(Cl)cc2)cc(C(F)(F)F)n1Cc1ccccc1 [SC-189, 1-Benzyl-3-(4-chlorophenyl)-N-methyl-N-(3-methylsulfonyl-propyl)-5-(trifluoromethyl)-1H-pyrrole-2-carboxylic acid amide]",> 95
16,"CCN(CCS(C)(=O)=O)C(=O)c1c(-c2ccc(Cl)cc2)cc(C(F)(F)F)n1Cc1ccccc1 [SC-190, 1-Benzyl-3-(4-chlorophenyl)-N-ethyl-N-(2-methylsulfonyl-ethyl)-5-(trifluoromethyl)-1H-pyrrole-2-carboxylic acid amide]",> 95
17,"CS(=O)(=O)CCNC(=O)c1c(-c2ccc(Cl)cc2)cc(C(F)(F)F)n1Cc1ccccc1 [SC-191, 1-Benzyl-3-(4-chlorophenyl)-N-(2-methylsulfonyl-ethyl)-5-(trifluoromethyl)-1H-pyrrole-2-carboxylic acid amide]",75 to 95
18,"CCS(=O)(=O)CCN(C)C(=O)c1c(-c2ccc(Cl)cc2)cc(C(F)(F)F)n1Cc1ccccc1 [SC-192, 1-Benzyl-3-(4-chlorophenyl)-N-[2-(ethylsulfonyl)-ethyl]-N-methyl-5-(trifluoromethyl)-1H-pyrrole-2-carboxylic acid amide]",> 95
19,"CN(C(=O)c1c(-c2ccc(Cl)cc2)cc(C(F)(F)F)n1Cc1ccccc1)C1CCS(=O)(=O)CC1 [SC-193, 1-Benzyl-3-(4-chlorophenyl)-N-(1,1-dioxo-thian-4-yl)-N-methyl-5-(trifluoromethyl)-1H-pyrrole-2-carboxylic acid amide]",> 95
20,"CC(C)S(=O)(=O)CCN(C)C(=O)c1c(-c2ccc(Cl)cc2)cc(C(F)(F)F)n1Cc1ccccc1 [SC-194, 1-Benzyl-3-(4-chlorophenyl)-N-[2-(isopropylsulfonyl)-ethyl]-N-methyl-5-(trifluoromethyl)-1H-pyrrole-2-carboxylic acid amide]",> 95
21,"CN(CCC1CCCO1)C(=O)c1c(-c2ccc(Cl)cc2)cc(C(F)(F)F)n1Cc1ccccc1 (stereo not drawn) [SC-195, 1-Benzyl-3-(4-chlorophenyl)-N-methyl-N-(2-tetrahydro-furan-2-yl-ethyl)-5-(trifluoromethyl)-1H-pyrrole-2-carboxylic acid amide]",> 95
22,"O=C(c1c(-c2ccc(Cl)cc2)cc(C(F)(F)F)n1Cc1ccccc1)N1CCS(=O)(=O)CC1 [SC-196, [1-Benzyl-3-(4-chlorophenyl)-5-(trifluoromethyl)-1H-pyrrol-2-yl]-(1,1-dioxo-[1,4]thiazinan-4-yl)-methanone]",> 95
23,"CN(CC1CCCO1)C(=O)c1c(-c2ccc(Cl)cc2)cc(C(F)(F)F)n1Cc1ccccc1 (stereo not drawn) [SC-197, 1-Benzyl-3-(4-chlorophenyl)-N-methyl-N-(tetrahydro-furan-2-yl-methyl)-5-(trifluoromethyl)-1H-pyrrole-2-carboxylic acid amide]",> 95
24,"CC(CS(C)(=O)=O)N(C)C(=O)c1c(-c2ccc(Cl)cc2)cc(C(F)(F)F)n1Cc1ccccc1 (stereo not drawn) [SC-198, 1-Benzyl-3-(4-chlorophenyl)-N-methyl-N-(1-methyl-2-methylsulfonyl-ethyl)-5-(trifluoromethyl)-1H-pyrrole-2-carboxylic acid amide]",> 95
25,"CN(CC1CCC[C@@H]1O)C(=O)c1c(-c2ccc(Cl)cc2)cc(C(F)(F)F)n1Cc1ccccc1 (stereo partly drawn) [SC-199, 1-Benzyl-3-(4-chlorophenyl)-N-[[(2S)-2-hydroxy-cyclopentyl]-methyl]-N-methyl-5-(trifluoromethyl)-1H-pyrrole-2-carboxylic acid amide]",> 95
26,"CN(CC1CCC[C@H]1O)C(=O)c1c(-c2ccc(Cl)cc2)cc(C(F)(F)F)n1Cc1ccccc1 (stereo partly drawn) [SC-200, 1-Benzyl-3-(4-chlorophenyl)-N-[[(2R)-2-hydroxy-cyclopentyl]-methyl]-N-methyl-5-(trifluoromethyl)-1H-pyrrole-2-carboxylic acid amide]",> 95
27,"CS(=O)(=O)C1CN(C(=O)c2c(-c3ccc(Cl)cc3)cc(C(F)(F)F)n2Cc2ccccc2)C1 [SC-201, [1-Benzyl-3-(4-chlorophenyl)-5-(trifluoromethyl)-1H-pyrrol-2-yl]-(3-methylsulfonyl-azetidin-1-yl)-methanone]",75 to 95
28,"CN(CC1CCCCO1)C(=O)c1c(-c2ccc(Cl)cc2)cc(C(F)(F)F)n1Cc1ccccc1 (stereo not drawn) [SC-202, 1-Benzyl-3-(4-chlorophenyl)-N-methyl-N-(tetrahydro-pyran-2-yl-methyl)-5-(trifluoromethyl)-1H-pyrrole-2-carboxylic acid amide]",75 to 95
29,"CN(CCN1CCCC1)CC(C)(C)CN(C)C(=O)c1c(-c2ccc(Cl)cc2)cc(C(F)(F)F)n1Cc1ccccc1 [SC-203, 1-Benzyl-3-(4-chlorophenyl)-N-[2,2-dimethyl-3-[methyl-(2-pyrrolidin-1-yl-ethyl)-amino]-propyl]-N-methyl-5-(trifluoromethyl)-1H-pyrrole-2-carboxylic acid amide]",> 95
30,"Cc1cc(CN(C)C(=O)c2c(-c3ccc(Cl)cc3)cc(C(F)(F)F)n2Cc2ccccc2)on1 [SC-204, 1-Benzyl-3-(4-chlorophenyl)-N-methyl-N-[(3-methyl-isoxazol-5-yl)-methyl]-5-(trifluoromethyl)-1H-pyrrole-2-carboxylic acid amide]",75 to 95
